Article PMC12638379, “An innovative approach to development of new pyrazolylquinolin-2-one hybrids as dual EGFR and BRAF^V600E inhibitors” (Molecular Diversity, 2025)
Read-outs that look alike come from different tables or passages of the source.

How the values were obtained:
[1] = system: NCI 60 cancer cell lines; assay: NCI anticancer screening over a panel of 60 cancer cells, single concentration 10 µM; assay type: cell-based, human; details: Homo sapiens, read-out: % Growth Inhibition (GI %)
In short: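 Primary single-dose screen at 10 µM over the NCI panel of 60 human tumour cell lines (leukemia, CNS, lung, colon, kidney, ovary, breast, prostate). The standard NCI Developmental Therapeutics Program protocol was used.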

[2] = MTT cytotoxicity on normal cell line WI-38; details: human, WI-38 normal cells, % viability
[3] = system: normal cell line WI-38; assay: MTT cytotoxicity on normal cell line WI-38
[4] = system: leukemia (MOLT-4) cell line; assay: MTT antiproliferative assay, MOLT-4; assay type: cell-based, human
Experimental: (§1) After 24 h of culture incubation and supernatants discarded.

[5] = system: lung cancer (HOP-92) cell line; assay: MTT antiproliferative assay, HOP-92; assay type: cell-based, human
Experimental: […]. […] See Appendix B.
as §1

[6] = biological target: BRAF^V600E (Homo sapiens, UniProt P15056, V600E); assay: BRAF^V600E inhibitory assay (B-Raf (V600E) Kinase Assay); assay type: biochemical; details: read-out: BRAF^V600E inhibition IC50 ± SEM
Sequence of BRAF^V600E (P15056 whole entry V600E): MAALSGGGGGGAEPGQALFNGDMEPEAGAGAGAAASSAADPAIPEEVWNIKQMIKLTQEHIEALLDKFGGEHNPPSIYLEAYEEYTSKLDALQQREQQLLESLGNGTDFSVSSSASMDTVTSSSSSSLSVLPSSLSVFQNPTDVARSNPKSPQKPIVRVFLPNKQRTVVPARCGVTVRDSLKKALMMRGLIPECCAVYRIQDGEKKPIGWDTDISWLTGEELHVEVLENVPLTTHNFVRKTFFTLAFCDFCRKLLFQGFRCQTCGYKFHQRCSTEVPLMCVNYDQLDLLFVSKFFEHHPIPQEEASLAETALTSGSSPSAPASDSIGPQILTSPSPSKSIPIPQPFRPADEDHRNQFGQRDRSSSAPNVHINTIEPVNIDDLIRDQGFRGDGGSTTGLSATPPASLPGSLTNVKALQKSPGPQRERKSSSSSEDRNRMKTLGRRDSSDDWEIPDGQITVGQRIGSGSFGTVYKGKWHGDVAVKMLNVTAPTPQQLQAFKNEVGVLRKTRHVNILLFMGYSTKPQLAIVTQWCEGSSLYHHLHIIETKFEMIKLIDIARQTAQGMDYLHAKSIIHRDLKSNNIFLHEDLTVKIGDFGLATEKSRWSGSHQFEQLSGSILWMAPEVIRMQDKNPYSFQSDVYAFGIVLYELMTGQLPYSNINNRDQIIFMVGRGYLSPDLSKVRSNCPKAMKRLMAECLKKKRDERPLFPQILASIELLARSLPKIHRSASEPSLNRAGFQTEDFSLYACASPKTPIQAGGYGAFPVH

[7] = system: breast cancer (T47D) cell line; assay: MTT antiproliferative assay, T-47D
Experimental: The median inhibitory concentration (IC50) and GI50 (average IC50) against the three cancer cell lines were calculated. See Appendix B.
Cells were cultured using DMEM (Invitrogen/Life Technologies) supplemented with 10% FBS (Hyclone,), 10 ug/ml of insulin (Sigma), and 1% penicillin-streptomycin. Plate cells (cells density 1.2 – 1.8 × 10,000 cells/well) in a volume of 100µl complete growth medium + 100 ul of the tested compound per well in a 96-well plate for 24 hours before the MTT assay. In atypical experiment, one hundred micro liters of serial 10-fold diluted sterile tested compounds were added to final concentrations of […] using culture media as negative control. After 24 h of culture incubation and supernatants discarded. HOP-92 lung, MOLT-4 leukemia, and T-47D breast cell lines were trypsinized and washed with Ca2/Mg2 free PBS (pH 7.2). we removed cultures from incubator into laminar flow hood or other sterile work area. […] Each test should include a blank containing complete medium without cells. […] Add reconstituted MTT in an amount equal to 10% of the culture medium volume. Return cultures to incubator for 2-4 hours depending on cell type and maximum cell density. […] Spectrophotometrically absorbance was measured at a wavelength of 570 nm. Measure the background absorbance of multiwell plates at 690 nm and subtract from the […] measurement. Results from all experiments were recorded and the percentage of viable cells was calculated.

C/C(=N\Nc1ccc(S(N)(=O)=O)cc1)c1cnn(-c2cc(=O)[nH]c3ccc(Cl)cc23)c1C [Compound 4d, (E)-4-(2-(1-(1-(6-chloro-2-oxo-1,2-dihydroquinolin-4-yl)-5-methyl-1H-pyrazol-4-yl)ethylidene)hydrazineyl)benzenesulfonamide]
inhibition at 10 µM ([1]; 786-0, Renal cancer 786-0, 10 μM): 14.4% | inhibition at 10 µM ([1]; A498, Renal cancer A498, 10 μM): < 5% | inhibition at 10 µM ([1]; A549, Non-small cell lung cancer A549/ATCC, 10 μM): < 5% | inhibition at 10 µM ([1]; ACHN, Renal cancer ACHN, 10 μM): 14.1% | inhibition at 10 µM ([1]; BT-549, Breast cancer BT-549, 10 μM): 56.3% | inhibition at 10 µM ([1]; CAKI-1, Renal cancer CAKI-1, 10 μM): 21.5% | inhibition at 10 µM ([1]; CCRF-CEM, Leukemia CCRF-CEM, 10 μM): 52.2% | inhibition at 10 µM ([1]; COLO 205, Colon cancer COLO 205, 10 μM): < 5% | inhibition at 10 µM ([1]; DU-145, Prostate cancer DU-145, 10 μM): 10.9% | inhibition at 10 µM ([1]; EKVX, Non-small cell lung cancer EKVX, 10 μM): 10.1% | inhibition at 10 µM ([1]; HCC 2998, Colon cancer HCC-2998, 10 μM): < 5% | inhibition at 10 µM ([1]; HCT-15, Colon cancer HCT-15, 10 μM): < 5% | inhibition at 10 µM ([1]; HCT-116, Colon cancer HCT-116, 10 μM): 19.1% | inhibition at 10 µM ([1]; HL-60, Leukemia HL-60(TB), 10 μM): < 5% | inhibition at 10 µM ([1]; HOP-62, Non-small cell lung cancer HOP-62, 10 μM): 24.6% | inhibition at 10 µM ([1]; HOP-92, Non-small cell lung cancer HOP-92, 10 μM): < 5% | inhibition at 10 µM ([1]; HT-29, Colon cancer HT29, 10 μM): < 5% | inhibition at 10 µM ([1]; Hs-578T, Breast cancer HS 578T, 10 μM): 36.3% | inhibition at 10 µM ([1]; IGROV-1, Ovarian cancer IGROV1, 10 μM): 14.6% | inhibition at 10 µM ([1]; K562, Leukemia K-562, 10 μM): 29.7% | inhibition at 10 µM ([1]; KM12, Colon cancer KM12, 10 μM): 16.7% | inhibition at 10 µM ([1]; LOX IMVI, Melanoma LOX IMVI, 10 μM): 29% | inhibition at 10 µM ([1]; Leukemia SR, 10 μM): 71.6% | inhibition at 10 µM ([1]; MCF7, Breast cancer MCF7, 10 μM): 36.3% | inhibition at 10 µM ([1]; MDA-MB-231, Breast cancer MDA-MB-231/ATCC, 10 μM): 51.7% | inhibition at 10 µM ([1]; MDA-MB-435, Melanoma MDA-MB-435, 10 μM): 27.3% | inhibition at 10 µM ([1]; MDA-MB-468, Breast cancer MDA-MB-468, 10 μM): 47.2% | inhibition at 10 µM ([1]; MOLT-4, Leukemia MOLT-4, 10 μM): 34.3% | inhibition at 10 µM ([1]; Melanoma M14, 10 μM): 20.7% | inhibition at 10 µM ([1]; Melanoma MALM-3M, 10 μM): 44.5% | inhibition at 10 µM ([1]; NCI-H23, Non-small cell lung cancer NCI-H23, 10 μM): 16.9% | inhibition at 10 µM ([1]; NCI-H226, Non-small cell lung cancer NCI-H226, 10 μM): 17.6% | inhibition at 10 µM ([1]; NCI-H322M, Non-small cell lung cancer NCI-H322M, 10 μM): 8.41% | inhibition at 10 µM ([1]; NCI-H460, Non-small cell lung cancer NCI-H460, 10 μM): 6.52% | inhibition at 10 µM ([1]; NCI-H522, Non-small cell lung cancer NCI-H522, 10 μM): 44.8% | inhibition at 10 µM ([1]; NCI/ADR-RES, Ovarian cancer NCI/ADR-RES, 10 μM): 5.85% | inhibition at 10 µM ([1]; OVCAR-3, Ovarian cancer OVCAR-3, 10 μM): 23.4% | inhibition at 10 µM ([1]; OVCAR-4, Ovarian cancer OVCAR-4, 10 μM): 24.2% | inhibition at 10 µM ([1]; OVCAR-5, Ovarian cancer OVCAR-5, 10 μM): 11.5% | inhibition at 10 µM ([1]; OVCAR-8, Ovarian cancer OVCAR-8, 10 μM): 6.15% | inhibition at 10 µM ([1]; Prostate cancer PC-3, 10 μM): 18.5% | inhibition at 10 µM ([1]; RPMI-8226, Leukemia RPMI-8226, 10 μM): 15.7% | inhibition at 10 µM ([1]; RXF 393, Renal cancer RXF 393, 10 μM): < 5% | inhibition at 10 µM ([1]; SF-268, CNS Cancer SF-268, 10 μM): 28.7% | inhibition at 10 µM ([1]; SF-295, CNS Cancer SF-295, 10 μM): 9.48% | inhibition at 10 µM ([1]; SF-539, CNS Cancer SF-539, 10 μM): 33% | inhibition at 10 µM ([1]; SK-MEL-2, Melanoma SK-MEL-2, 10 μM): 27.2% | inhibition at 10 µM ([1]; SK-MEL-5, Melanoma SK-MEL-5, 10 μM): 21.8% | inhibition at 10 µM ([1]; SK-MEL-28, Melanoma SK-MEL-28, 10 μM): 24.7% | inhibition at 10 µM ([1]; SK-OV-3, Ovarian cancer SK-OV-3, 10 μM): 24.1% | inhibition at 10 µM ([1]; SN12C, Renal cancer SN12C, 10 μM): 27% | inhibition at 10 µM ([1]; SNB-19, CNS Cancer SNB-19, 10 μM): 24.9% | inhibition at 10 µM ([1]; SNB-75, CNS Cancer SNB-75, 10 μM): 35.4% | inhibition at 10 µM ([1]; SW-620, Colon cancer SW-620, 10 μM): 7.13% | inhibition at 10 µM ([1]; T47D, Breast cancer T-47D, 10 μM): 54% | inhibition at 10 µM ([1]; TK-10, Renal cancer TK-10, 10 μM): < 5% | inhibition at 10 µM ([1]; U-251, CNS Cancer U251, 10 μM): 26.3% | inhibition at 10 µM ([1]; UACC-62, Melanoma UACC-62, 10 μM): 41.8% | inhibition at 10 µM ([1]; UACC-257, Melanoma UACC-257, 10 μM): 4.52% | inhibition at 10 µM ([1]; UO-31, Renal cancer UO-31, 10 μM): 37.7% | viability at 24 h, 0.4 µM ([2]; WI38, 0.4uM (log conc. -0.41)): 80.9% | viability at 24 h, 1.6 µM ([2]; WI38, 1.6uM (log conc. 0.19)): 73.3% | viability at 24 h, 6.3 µM ([2]; WI38, 6.3uM (log conc. 0.8)): 63.5% | viability at 24 h, 25 µM ([2]; WI38, 25uM (log conc. 1.4)): 56.2% | viability at 24 h, 100 µM ([2]; WI38, 100uM (log conc. 2)): 46.8% | IC50 ([3]; Homo sapiens, read-out: Antiproliferative activity IC50 ± SEM): 62.5 ± 2.49 µM | % viability ([3]; WI38, 0.4uM (log conc. -0.41), listed as Ws4, 0.4 µM): 80.87% | % viability ([3]; WI38, 1.6uM (log conc. 0.19), listed as Ws4, 1.6 µM): 73.32% | % viability ([3]; WI38, 6.3uM (log conc. 0.8), listed as Ws4, 6.3 µM): 63.52% | % viability ([3]; WI38, 25uM (log conc. 1.4), listed as Ws4, 25 µM): 56.21% | % viability ([3]; WI38, 100uM (log conc. 2), listed as Ws4, 100 µM): 46.82% | viability at 0.4 µM ([4]; Homo sapiens, MOLT-4, MOLT-4, MTT, 0.4uM): 69.9% | viability at 1.6 µM ([4]; Homo sapiens, MOLT-4, MOLT-4, MTT, 1.6uM): 62.7% | viability at 6.3 µM ([4]; Homo sapiens, MOLT-4, MOLT-4, MTT, 6.3uM): 51.6% | viability at 25 µM ([4]; Homo sapiens, MOLT-4, MOLT-4, MTT, 25uM): 40.9% | viability at 100 µM ([4]; Homo sapiens, MOLT-4, MOLT-4, MTT, 100uM): 30.2% | IC50 ([4]; Homo sapiens, MOLT-4, MTT, read-out: Antiproliferative activity IC50 ± SEM, MOLT-4): 7.24 ± 0.29 µM | % viability ([4]; MOLT-4, MTT, 0.4uM, listed as Ws4, 0.4 µM): 69.89% | % viability ([4]; MOLT-4, MTT, 1.6uM, listed as Ws4, 1.6 µM): 62.75% | % viability ([4]; MOLT-4, MTT, 25uM, listed as Ws4, 25 µM): 40.91% | % viability ([4]; MOLT-4, MTT, 100uM, listed as Ws4, 100 µM): 30.23% | % viability ([5]; HOP-92, MTT, 0.4uM, listed as Ws4, 0.4 µM): 85.21% | % viability ([5]; HOP-92, MTT, 1.6uM, listed as Ws4, 1.6 µM): 75.93% | % viability ([5]; HOP-92, MTT, 6.3uM, listed as Ws4, 6.3 µM): 64.52% | % viability ([5]; HOP-92, MTT, 25uM, listed as Ws4, 25 µM): 52.12% | % viability ([5]; HOP-92, MTT, 100uM, listed as Ws4, 100 µM): 42.18% | viability at 0.4 µM ([5]; Homo sapiens, HOP-92, HOP-92, MTT, 0.4uM, read-out: % viability): 85.2% | viability at 1.6 µM ([5]; Homo sapiens, HOP-92, HOP-92, MTT, 1.6uM, read-out: % viability): 75.9% | viability at 6.3 µM ([5]; Homo sapiens, HOP-92, HOP-92, MTT, 6.3uM, read-out: % viability): 64.5% | viability at 25 µM ([5]; Homo sapiens, HOP-92, HOP-92, MTT, 25uM, read-out: % viability): 52.1% | viability at 100 µM ([5]; Homo sapiens, HOP-92, HOP-92, MTT, 100uM, read-out: % viability): 42.2% | IC50 ([5]; Homo sapiens, HOP-92, MTT, read-out: Antiproliferative activity IC50 ± SEM, HOP-92): 36.5 ± 1.46 µM | IC50 [6]: 249 ± 10 nM | viability at 0.4 µM ([7]; Homo sapiens, T47D, T-47D, MTT, 0.4uM): 77.2% | viability at 1.6 µM ([7]; Homo sapiens, T47D, T-47D, MTT, 1.6uM): 68.1% | viability at 6.3 µM ([7]; Homo sapiens, T47D, T-47D, MTT, 6.3uM): 56.8% | viability at 25 µM ([7]; Homo sapiens, T47D, T-47D, MTT, 25uM): 45.8% | viability at 100 µM ([7]; Homo sapiens, T47D, T-47D, MTT, 100uM): 33.6% | IC50 ([7]; Homo sapiens, T47D, read-out: Antiproliferative activity IC50 ± SEM, T-47D, MTT): 13.8 ± 0.48 µM | % viability ([7]; T-47D, MTT, 1.6uM, listed as Ws4, 1.6 µM): 68.09% | % viability ([7]; T-47D, MTT, 6.3uM, listed as Ws4, 6.3 µM): 56.85% | % viability ([7]; T-47D, MTT, 25uM, listed as Ws4, 25 µM): 45.78% | % viability ([7]; T-47D, MTT, 100uM, listed as Ws4, 100 µM): 33.56%
